Values quoted from earlier work as cited in patent US20080319079A1 (priority 2006, published 2008).

Key:
[1] = repeated doses administered frequently up to a maximum dose of 80 μg per day
[2] = tested on: patients with reversible obstructive respiratory diseases; settings: for duration of action (bronchodilation): patients with asthma and related respiratory illnesses, inhalation

For `COc1ccc(CC(C)NCC(O)c2ccc(O)c(NC=O)c2)cc1` (centres unmarked) [formoterol, N-[2-hydroxy-5-(1-hydroxy-2-((2-(4-methoxyphenyl)-1-methylethyl)-amino)-ethyl)phenyl]formamide], the side effects [1] is listed as “no more side effects than short acting bronchodilators”.

In the case of `CC(C)(C)NCC(O)c1ccc(O)c(CO)c1` (centres unmarked) [salbutamol], the “duration of action (bronchodilation)” value [2] is listed as “four to six”.

For `CC(C)(C)NCC(O)c1cc(O)cc(O)c1` (centres unmarked) [terbutaline], the “duration of action (bronchodilation)” value [2] is listed as “four to six”.

In the case of `OCc1cc(C(O)CNCCCCCCOCCCCc2ccccc2)ccc1O` (centres unmarked) [Salmeterol], the onset of action ([2]; after inhalation) is given as “approximately thirty” and the “duration of action (bronchodilation)” value [2] is given as “twelve”.
